From ChEMBL document CHEMBL1157348, “The alkaloid conessine and analogues as potent histamine H3 receptor antagonists” (J Med Chem, 2008)

Key:
Histamine H2 receptor = Histamine H2 receptor (Homo sapiens, UniProt P25021); assay: Displacement of [3H]tiotidine from human histamine H2 receptor; settings: read-out: pKi (converted)
[1] = Plasma concentration in rat at 1 mg/kg, ip after 5 hrs; format: ADME, organism-based; parameters: dose 1 mg/kg, route intraperitoneal
Histamine H3 receptor [2] = biological target: T1, Histamine H3 receptor (Homo sapiens, UniProt Q9Y5N1); assay: Displacement of [3H]NAMH from histamine H3 receptor in human cortex
Histamine H3 receptor [3] = biological target: Histamine H3 receptor (Cavia porcellus, UniProt Q9JI35); assay: Antagonist activity at histamine H3 receptor in guinea pig ileum assessed as inhibition of (R)-alpha-methylhistamine-induced response
[4] = biological target: T2, Alpha-2A adrenergic receptor (Homo sapiens, UniProt P08913); assay: Displacement of [3H]rauwolscine from human adrenergic alpha 2C10 receptor expressed in mouse LTK- cells; format: cell-based
T2 sequence (P08913 whole entry): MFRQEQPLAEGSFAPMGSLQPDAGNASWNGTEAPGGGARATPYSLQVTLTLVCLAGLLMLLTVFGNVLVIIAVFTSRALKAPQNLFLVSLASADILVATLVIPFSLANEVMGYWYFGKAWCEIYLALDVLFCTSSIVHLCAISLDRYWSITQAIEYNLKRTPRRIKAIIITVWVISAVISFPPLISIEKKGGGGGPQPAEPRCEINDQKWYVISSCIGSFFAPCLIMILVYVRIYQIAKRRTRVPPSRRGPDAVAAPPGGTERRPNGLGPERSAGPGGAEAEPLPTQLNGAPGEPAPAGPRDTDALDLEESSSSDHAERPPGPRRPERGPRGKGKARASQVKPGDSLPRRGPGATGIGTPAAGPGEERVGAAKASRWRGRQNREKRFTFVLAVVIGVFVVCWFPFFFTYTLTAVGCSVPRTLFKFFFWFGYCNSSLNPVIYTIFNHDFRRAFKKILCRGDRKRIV

Histamine H3 receptor [5] = biological target: T1, Histamine H3 receptor; settings: HEK293
[6] = Ratio of drug level in brain to plasma at 1 mg/kg, ip after 5 hrs; format: ADME, organism-based; parameters: dose 1 mg/kg, route intraperitoneal; settings: rat
[7] = Displacement of [3H]LY278584 from 5HT1 receptor in rat frontal cortex; format: tissue-based
Histamine H1 receptor = Histamine H1 receptor (Homo sapiens, UniProt P35367); assay: Displacement of [3H]mepyramine from human histamine H1 receptor; settings: read-out: pKi (converted)
[8] = biological target: T3, Alpha-2C adrenergic receptor (Homo sapiens, UniProt P18825); assay: Displacement of [3H]rauwolscine from human adrenergic alpha 2C4 receptor expressed in mouse LTK- cells; format: cell-based
T3 sequence (P18825 whole entry): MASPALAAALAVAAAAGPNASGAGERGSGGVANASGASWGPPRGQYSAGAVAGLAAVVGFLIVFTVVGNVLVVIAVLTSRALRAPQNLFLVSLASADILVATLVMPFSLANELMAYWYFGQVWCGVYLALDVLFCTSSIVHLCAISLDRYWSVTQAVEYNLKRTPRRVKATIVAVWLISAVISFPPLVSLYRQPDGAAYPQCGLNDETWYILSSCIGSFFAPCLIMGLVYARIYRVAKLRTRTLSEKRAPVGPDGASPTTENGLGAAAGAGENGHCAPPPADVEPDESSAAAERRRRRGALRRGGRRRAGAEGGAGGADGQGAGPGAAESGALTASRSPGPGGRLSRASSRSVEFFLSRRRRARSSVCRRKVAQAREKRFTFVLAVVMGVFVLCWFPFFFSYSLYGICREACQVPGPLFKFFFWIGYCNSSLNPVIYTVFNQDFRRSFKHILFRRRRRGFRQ

[9] = Displacement of [3H]LY278584 from 5HT3 receptor in rat frontal cortex; format: tissue-based
[10] = Ratio of drug level in brain to plasma at 1 mg/kg, ip after 24 hrs; format: ADME, organism-based; parameters: dose 1 mg/kg, route intraperitoneal; settings: rat
Histamine H4 receptor = Histamine H4 receptor (Homo sapiens, UniProt Q9H3N8); assay: Displacement of [3H]histamine from human histamine H4 receptor expressed in HEK cells; format: cell-based, HEK293; settings: read-out: pKi (converted)
[11] = Displacement of [3H]LY278584 from 5HT2 receptor in rat frontal cortex; format: tissue-based
Histamine H3 receptor [12] = biological target: T4, Histamine H3 receptor (Rattus norvegicus, UniProt Q9QYN8); assay: Displacement of [3H]NAMH from histamine H3 receptor in rat cortex; settings: read-out: pKi (converted)
[13] = Drug level in rat blood at 1 mg/kg, ip after 5 hrs; format: ADME, organism-based; parameters: dose 1 mg/kg, route intraperitoneal; settings: read-out: Drug uptake
[14] = Drug level in rat brain at 1 mg/kg, ip after 1 hr; format: ADME, organism-based; parameters: dose 1 mg/kg, route intraperitoneal; settings: read-out: Drug uptake
[15] = Selectivity ratio for human adrenergic alpha 2C4 receptor over human H3 receptor
[16] = Plasma concentration in rat at 1 mg/kg, ip after 24 hrs; format: ADME, organism-based; parameters: dose 1 mg/kg, route intraperitoneal
[17] = biological target: Histamine H3 receptor (Rattus norvegicus) (UniProt Q9QYN8); assay: Antagonist activity at rat full length histamine H3 receptor expressed in HEK cells assessed as inhibition of forskolin-induced cAMP accumulation by SPA; settings: HEK293
Histamine H3 receptor [18] = biological target: T1, Histamine H3 receptor; assay: Antagonist activity at human full length histamine H3 receptor expressed in HEK293 cells assessed as inhibition of (R)-alpha-methylhistamine-induced intracellular calcium release by FLIPR; format: functional, cell-based
[19] = Ratio of drug level in brain to plasma at 1 mg/kg, ip after 1 hr; format: ADME, organism-based; parameters: dose 1 mg/kg, route intraperitoneal; settings: rat
[20] = Plasma concentration in rat at 1 mg/kg, ip after 1 hr; format: ADME, organism-based; parameters: dose 1 mg/kg, route intraperitoneal
Histamine H3 receptor [21] = biological target: T1, Histamine H3 receptor; assay: Displacement of [3H]NAMH from human full length histamine H3 receptor expressed in rat C6 cells; format: cell-based
[22] = Drug level in rat brain at 1 mg/kg, ip after 5 hrs; format: ADME, organism-based; parameters: dose 1 mg/kg, route intraperitoneal; settings: read-out: Drug uptake
Rattus norvegicus = assay: Toxicity in rat assessed as CNS side effects at 1.3 to 13 mg/kg, ip; format: organism-based; parameters: dose 1.3-13 mg/kg, route intraperitoneal; settings: in vivo
[23] = Drug level in rat blood at 1 mg/kg, ip after 24 hrs; format: ADME, organism-based; parameters: dose 1 mg/kg, route intraperitoneal; settings: read-out: Drug uptake
[24] = Drug level in rat brain at 1 mg/kg, ip after 24 hrs; format: ADME, organism-based; parameters: dose 1 mg/kg, route intraperitoneal; settings: read-out: Drug uptake
Histamine H3 receptor [25] = biological target: T1, Histamine H3 receptor; settings: C6
Histamine H3 receptor [26] = biological target: T4, Histamine H3 receptor; assay: Displacement of [3H]NAMH from rat full length histamine H3 receptor expressed in rat C6 cells; format: cell-based; settings: read-out: pKi (converted)
[27] = Drug level in rat blood at 1 mg/kg, ip after 1 hr; format: ADME, organism-based; parameters: dose 1 mg/kg, route intraperitoneal; settings: read-out: Drug uptake

T1 sequence (Q9Y5N1 whole entry): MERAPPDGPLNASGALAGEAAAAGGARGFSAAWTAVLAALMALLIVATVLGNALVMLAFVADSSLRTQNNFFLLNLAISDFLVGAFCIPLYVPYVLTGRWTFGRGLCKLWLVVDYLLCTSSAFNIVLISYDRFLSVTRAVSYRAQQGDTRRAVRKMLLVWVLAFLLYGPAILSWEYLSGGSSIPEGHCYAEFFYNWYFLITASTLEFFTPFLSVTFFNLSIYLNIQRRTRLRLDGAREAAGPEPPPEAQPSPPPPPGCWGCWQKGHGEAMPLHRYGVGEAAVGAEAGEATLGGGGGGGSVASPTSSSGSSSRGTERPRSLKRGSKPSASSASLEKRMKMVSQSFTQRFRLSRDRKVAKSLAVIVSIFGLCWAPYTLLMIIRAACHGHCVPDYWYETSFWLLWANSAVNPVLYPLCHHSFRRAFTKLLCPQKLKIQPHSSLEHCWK
T4 sequence (Q9QYN8 whole entry): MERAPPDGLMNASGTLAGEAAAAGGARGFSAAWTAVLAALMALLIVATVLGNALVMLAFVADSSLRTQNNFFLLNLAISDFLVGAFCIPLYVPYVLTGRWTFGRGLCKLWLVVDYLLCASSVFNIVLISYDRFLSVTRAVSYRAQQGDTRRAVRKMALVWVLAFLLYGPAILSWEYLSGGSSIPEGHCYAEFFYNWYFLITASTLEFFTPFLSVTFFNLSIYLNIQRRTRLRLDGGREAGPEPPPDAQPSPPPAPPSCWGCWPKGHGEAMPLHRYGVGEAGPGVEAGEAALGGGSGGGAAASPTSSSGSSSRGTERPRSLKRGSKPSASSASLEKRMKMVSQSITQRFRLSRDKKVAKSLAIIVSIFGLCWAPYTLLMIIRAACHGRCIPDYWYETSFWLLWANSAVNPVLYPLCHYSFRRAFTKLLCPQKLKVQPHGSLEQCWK
Chain of Histamine H3 receptor (Rattus norvegicus) (Q9QYN8 whole entry): as above
Chain of Histamine H2 receptor (P25021 whole entry): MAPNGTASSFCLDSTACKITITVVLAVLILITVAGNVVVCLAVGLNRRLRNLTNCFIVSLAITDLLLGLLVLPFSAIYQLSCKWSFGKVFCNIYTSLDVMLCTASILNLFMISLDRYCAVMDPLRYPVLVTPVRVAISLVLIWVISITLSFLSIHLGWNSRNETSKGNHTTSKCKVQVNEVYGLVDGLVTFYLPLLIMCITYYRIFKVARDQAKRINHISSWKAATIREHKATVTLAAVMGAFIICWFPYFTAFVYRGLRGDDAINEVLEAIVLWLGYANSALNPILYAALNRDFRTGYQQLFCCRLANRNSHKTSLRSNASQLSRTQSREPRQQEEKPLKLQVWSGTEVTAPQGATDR
Chain of Histamine H3 receptor (Cavia porcellus, UniProt Q9JI35) (Q9JI35 whole entry): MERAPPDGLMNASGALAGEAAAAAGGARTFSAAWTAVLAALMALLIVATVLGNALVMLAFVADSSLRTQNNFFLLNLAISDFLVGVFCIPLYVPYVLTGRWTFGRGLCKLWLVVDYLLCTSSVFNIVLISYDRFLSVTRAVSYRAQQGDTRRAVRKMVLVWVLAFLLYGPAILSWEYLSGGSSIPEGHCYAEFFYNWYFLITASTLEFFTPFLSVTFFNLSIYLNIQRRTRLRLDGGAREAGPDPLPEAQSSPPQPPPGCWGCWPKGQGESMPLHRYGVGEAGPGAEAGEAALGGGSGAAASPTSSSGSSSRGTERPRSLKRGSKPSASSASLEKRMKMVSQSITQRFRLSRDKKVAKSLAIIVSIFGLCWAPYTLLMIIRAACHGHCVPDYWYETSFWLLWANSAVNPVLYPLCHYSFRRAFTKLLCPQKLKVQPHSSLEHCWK
Chain of Histamine H1 receptor (P35367 whole entry): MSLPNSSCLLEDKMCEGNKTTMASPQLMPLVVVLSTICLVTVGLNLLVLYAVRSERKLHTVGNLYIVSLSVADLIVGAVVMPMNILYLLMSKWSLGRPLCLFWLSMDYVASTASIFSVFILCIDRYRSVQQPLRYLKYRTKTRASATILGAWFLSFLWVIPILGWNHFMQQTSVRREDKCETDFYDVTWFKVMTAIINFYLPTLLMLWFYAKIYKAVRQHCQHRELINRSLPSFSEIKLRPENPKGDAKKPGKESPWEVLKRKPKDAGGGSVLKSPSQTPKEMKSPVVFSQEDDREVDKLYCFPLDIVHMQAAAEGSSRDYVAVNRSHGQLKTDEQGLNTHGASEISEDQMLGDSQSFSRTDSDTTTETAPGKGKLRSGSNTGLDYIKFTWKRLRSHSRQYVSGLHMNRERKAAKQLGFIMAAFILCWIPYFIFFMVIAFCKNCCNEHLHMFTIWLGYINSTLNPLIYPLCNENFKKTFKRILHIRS
Chain of Histamine H4 receptor (Q9H3N8 whole entry): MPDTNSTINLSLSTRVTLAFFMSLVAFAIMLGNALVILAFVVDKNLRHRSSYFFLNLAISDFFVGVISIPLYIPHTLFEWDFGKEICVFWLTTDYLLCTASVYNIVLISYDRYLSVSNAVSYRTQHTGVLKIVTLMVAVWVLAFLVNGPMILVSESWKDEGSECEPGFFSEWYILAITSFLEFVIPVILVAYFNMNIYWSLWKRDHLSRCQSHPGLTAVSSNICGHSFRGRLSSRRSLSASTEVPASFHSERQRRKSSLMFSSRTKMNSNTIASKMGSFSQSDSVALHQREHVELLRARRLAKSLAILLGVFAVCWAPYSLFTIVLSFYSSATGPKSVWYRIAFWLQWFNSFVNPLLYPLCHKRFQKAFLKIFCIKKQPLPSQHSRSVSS

C[C@H]1[C@H]2CC[C@H]3[C@@H]4CC=C5C[C@@H](N(C)C)CC[C@]5(C)[C@H]4CC[C@]23CN1C [CONESSINE]
Ki (Histamine H2 receptor): > 10000 nM | concentration at 5 h [1]: 89 ng/mL | Ki (Histamine H3 receptor [2]): 3.47 nM | Kb (Histamine H3 receptor [3]): 282 nM | Ki [4]: 661 nM | pKb (Histamine H3 receptor [5]): 7.96 | Kp at 5 h [6]: 95.4 | pKi [7]: 5.72 | Ki (Histamine H1 receptor): > 10000 nM | Ki [8]: 10.6 nM | pKi [9]: < 5 | Kp at 24 h [10]: 114 | Ki (Histamine H4 receptor): > 10000 nM | pKi [11]: < 5 | Ki (Histamine H3 receptor [12]): 24.5 nM | concentration at 5 h [13]: 306 ng/mL | concentration at 1 h [14]: 6570 ng/g | Selectivity ratio [15]: 2 | concentration at 24 h [16]: 37 ng/mL | pKb [17]: 6.99 | pKb (Histamine H3 receptor [18]): 8.08 | Kp at 1 h [19]: 46 | concentration at 1 h [20]: 148 ng/mL | Ki (Histamine H3 receptor [21]): 5.37 nM | concentration at 5 h [22]: 6800 ng/g | Activity (Rattus norvegicus): Non-toxic | concentration at 24 h [23]: 102 ng/mL | concentration at 24 h [24]: 4140 ng/g | pKb (Histamine H3 receptor [25]): 6.14 | Ki (Histamine H3 receptor [26]): 12.3 nM | concentration at 1 h [27]: 444 ng/mL
